Experimental data published in patent US6869961B2, “Store operated calcium influx inhibitors and methods of use” (Cellegy Pharmaceuticals, Inc., priority 2001, dated 2005).

Experiments:
IL-2 [1] = experiment: IL-2 release from Jurkat cells (PMA and ionomycin, ELISA); assay type: cell-based, human; settings: for IC50: Homo sapiens, Jurkat, Table III, 'the foregoing assay' of Example 2
Experimental: Since NFAT plays a critical role in IL-2 and TNFα gene transcription, the effects of the novel compounds on IL-2 and TNFα secretion from stimulated lymphoid cells were also investigated. Jurkat cells, in standard medium, were seeded into 24-well dishes at 1 million cells per well and were treated as follows: […], then stimulated with 20 ng/mL PMA and 1 μg/mL ionomycin for 5 hours. Following centrifugation, the supernatants were analyzed for IL-2 content by ELISA using a standard protocol.

NFAT = experiment: NFAT-regulated luciferase reporter assay in Jurkat cells; assay type: cell-based, human; settings: for inhibition of NFAT activity: NFAT reporter assay, Jurkat cells
Experimental: The biological activity of column fractions and crystalline material was assessed in the NFAT activation assay using Jurkat cells stably transfected with NFAT-regulated luciferase reporter (see, FIGS. 9-14).
Jurkat cells, in standard medium, were seeded in 24-well dishes at 1 million cells per well and treated as follows. […] The cells were harvested 5 hours later and luciferase activity was measured in a luminometer.

NF-κB = NF-κB luciferase reporter in Jurkat T cells; assay type: cell-based, human; settings: 20 μg/ml, 5 hr
Experimental: The next day, cells were preincubated with lovastatin (20 μg/ml) or vehicle control for 15 min, and then stimulated with PMA (20 ng/ml), ionomycin (1 μg/ml), or PMA+ionomycin for 5 hr. The cells were harvested, lysed, and lysates assayed for firefly luciferase and Renilla luciferase activity measured in a luminometer.

IL-2 [2] = experiment: PBMC IL-2 release; assay type: cell-based; settings: FIG. 3
[3] = tested on: oxazolone-induced contact hypersensitivity response; settings: mouse, FIG. 6
TNF-alpha = experiment: PBMC TNF-alpha release; assay type: cell-based; settings: FIG. 4
IL-8 = IL-8 production from Jurkat cells; assay type: cell-based, human
[4] = tested on: rat basophilic leukemia (2H3) cells; experiment: 5-HT release from rat basophilic leukemia (2H3) cells; assay type: cell-based; settings: FIG. 5
TNBS-induced colitis = experiment: Rat TNBS-induced colitis model; assay type: in vivo; settings: 50 mg/kg/day intracolonically, two weeks, day 14
Description: Human inflammatory bowel disease (IBD) is a chronic relapsing and remitting disease of unknown etiology that affects individuals of both sexes throughout life. The factors contributing to the two main forms of the disease, Crohn's disease and ulcerative colitis, are complex and probably involve abnormal immune responses and commensal intestinal microflora. A number of experimental models of intestinal inflammation have been developed, including those based on intracolonic instillation of 2,4,6-trinitrobenzene sulfonic acid (TNBS). TNBS-induced colitis shares many of the histopathological and clinical features of Crohn's disease, i.e. it is to some extent immune-mediated, produces long lasting ulcerative damage and thickening of the bowel wall, granulocyte and mononuclear cell infiltration and granuloma formation, and transmural inflammation of the mucosa, (Morris et al., Gastroenterology 96:795-803, 1989). This model has been widely used to evaluate potential treatments for colonic inflammation.
In the present study, the local anti-inflammatory effects of lovastatin were assessed in the rat TNBS-induced colitis model. Colitis was induced in male Wistar rats weighing 175-225 g by intracolonic instillation of the hapten TNBS (60 mg/ml) in 0.5 ml of 50% ethanol. Groups of 8 rats received the lovastatin formulation prepared in Example 11 (50 mg/kg/day), a positive control, budesonide (2.5 mg/kg/day), or vehicle (0.5% sodium carboxymethylcellulose) intracolonically 1 hour after induction of colitis, and at 12 h intervals thereafter for two weeks. The rats received 0.5 ml of test drug or vehicle at each dosing. On day 14 after induction of colitis, the animals were euthanized and the distal colon was removed and pinned out on a wax platform. The presence or absence of diarrhea was noted, as was the presence and severity of adhesions between the colon and other organs. The severity of colonic damage was scored using the criteria described in Appleyard and Wallace, Am. J. Physiol. 269 (Gastrointest.Liver Physiol. 32): G119-G125, 1995. […]

IFN-gamma = IFN-gamma production from Jurkat cells; assay type: cell-based, human
JNK = JNK phosphorylation in Jurkat T cells (Western blot); assay type: cell-based, human; set-up: dose or concentration left out as unconfirmed; settings: lovastatin
Description: Cells were harvested, lysates prepared, and proteins Western blotted using antibodies directed against JNK or phospho-JNK (Thr183/Thr185).

Crohn's disease = experiment: Maintenance therapy of Crohn's disease in remission; assay type: in vivo, human; settings: Crohn's disease subjects in remission
Description: Remission is defined as no need for oral prednisone and presence of a score of 150 or less on the Crohn's Disease Activity Index. This index incorporates eight items: the number of liquid or very soft stools in the seven days preceding the assessment, the severity of abdominal pain, general well-being, the presence or absence of an abdominal mass or extra-intestinal manifestation of the disease, the use of opiates to treat diarrhea, hematocrit, and weight. Scores in this index can range from 0 to approximately 600. Higher scores indicate greater disease activity.
Upon reaching remission, the subject takes lovastatin orally (Mevacor, 20-1000 mg) every day, in addition to one or more of the following: controlled release lovastatin tablet(s) targeting specific disease sites, lovastatin enema(s), or lovastatin rectal suppositories on a regular basis. On average, 50-60% of Crohn's disease subjects in remission relapse in 40 weeks.

Work on `O=C1C[C@@H](O)C[C@H](CCc2ccccc2)O1` yielded an IC50 (IL-2 [1]) of 150 µM.

In the case of `CC[C@H](C)C(=O)O[C@H]1C[C@H](O)C=C2C=C[C@H](C)[C@H](CC[C@@H](O)C[C@@H](O)CC(=O)O)[C@H]21` [Pravastatin, pravastatin], the “inhibition of NFAT activity” value (NFAT) is reported as “inactive”.

For `COC(=O)/C=C/C=C/C=C/c1c(-c2ccc(F)cc2)c2ccccc2n1C(C)C` [Compound 1079-76-3C], the “IL-2 release by PMA and ionomycin in Jurkat cells” value (IL-2 [1]; 5.0 μg/mL, 30 min pre-incubation, 5 hours) was “inhibit”, the “inhibition of TG+PMA-induced NFAT activity” value (NFAT; 5 μg/mL, 0.3 μM TG + 20 ng/mL PMA, 5 hours) was “approximately 85%” and the “expression of NFAT-regulated reporter gene” value (NFAT; Jurkat cells stimulated with ionomycin + PMA or thapsigargin + PMA) was “inhibited”.

In the case of `CCC(C)C(=O)OC1CCC=C2C=CC(C)C(CCC(O)CC(O)CC(=O)O)C21` (stereo not shown) [mevastatin open chain form], the “inhibition of NFAT activity” value (NFAT) is reported as “only the lactone form was active”.

`O=C1CCCC(CCc2ccccc2)O1` (stereo not shown) showed an IC50 (IL-2 [1]) of over 50 µM.

In the case of `COC(=O)/C=C/C=C/C=C/c1c(-c2ccc(F)cc2)c2ccccc2n1C(C)C` [drawing 85], the IC50 (IL-2 [1]) is reported as 3 µM.

For `CC[C@H](C)C(=O)O[C@H]1C[C@@H](C)C=C2C=C[C@H](C)[C@H](CC[C@@H]3C[C@@H](O)CC(=O)O3)[C@H]21` [lovastatin], the “inhibition of Jurkat IL-2 release” value (IL-2 [1]; FIG. 2) was “inhibition”, the “calcium-dependent NF-κB activation (ionomycin synergy with PMA)” value (NF-κB) was “strongly inhibits” and the “inhibition of PBMC IL-2 release” value (IL-2 [2]) was “inhibition”. The “inhibition of oxazolone-induced contact hypersensitivity response” value [3] was “inhibition”, the “inhibition of PBMC TNF-alpha release” value (TNF-alpha) was “inhibition” and the “inhibition of IL-8 production” value (IL-8) was “inhibition”. The “inhibition of 5-hydroxytryptomine (5-HT) release” value [4] was “inhibition”, the “inhibition of NFAT activity” value (NFAT) was “able to inhibit” and the “colonic MPO activity” value (TNBS-induced colitis) was “reduced”. For the same compound, the colonic damage score (TNBS-induced colitis) was “significant (p<0.05) reduction”, the global colitis score (TNBS-induced colitis) was “significant (p<0.05) reduction” and the “inhibition of IFN-gamma production” value (IFN-gamma) was “inhibition”. The “PMA-induced JNK phosphorylation” value (JNK) was “little effect”, the “JNK phosphorylation induced by PMA+ionomycin” value (JNK; 15 min pre-incubation, 30 min stimulation) was “inhibits” and the disease activity (Crohn's disease) was “less severe”. For the same compound, the “remission time between relapse” value (Crohn's disease; oral 20-1000 mg every day plus local forms) was “longer”.

`CC(C)c1c(C(=O)Nc2ccccc2)c(-c2ccccc2)c(-c2ccc(F)cc2)n1CC[C@@H](O)C[C@@H](O)CC(=O)O` [atorvastatin] was tested, and the “inhibition of NFAT activity” value (NFAT) was “inactive”.

`O=C1C=CCC(CCc2ccccc2)O1` (stereo not shown) showed an IC50 (IL-2 [1]) of 5 µM.

In the case of `CC[C@H](C)C(=O)O[C@H]1CCC=C2C=C[C@H](C)[C@H](CC[C@@H]3C[C@@H](O)CC(=O)O3)[C@H]21` [mevastatin], the “inhibition of NFAT activity” value (NFAT) is reported as “able to inhibit” and the “inhibition of NFAT activity” value (NFAT; listed as mevastatin lactone form) is reported as “active”.

Compound `CCOC(=O)/C=C/C=C/C=C/c1ccccc1` has an IC50 (IL-2 [1]) of 4 to 12 µM.

Compound `O=C1CCC(CCc2ccccc2)O1` (stereo not shown) has an IC50 (IL-2 [1]) of over 50 µM.

`CCOC(=O)/C=C/C=C/CCc1ccccc1` gave an IC50 (IL-2 [1]) of 12 to 40 µM.

With `CN1C(=O)N(c2cc(Cl)cc(Cl)c2)C(=O)C1(C)Cc1ccc(Br)cc1` (single isomer, unassigned) [BIRT377 less active enantiomer] the “inhibition of NFAT activity” value (NFAT) was “very weak NFAT inhibitory activity”.

Compound `O=C1C=CC(CCc2ccccc2)O1` (stereo not shown) has an IC50 (IL-2 [1]) of 15 µM.

With `CN1C(=O)N(c2cc(Cl)cc(Cl)c2)C(=O)[C@@]1(C)Cc1ccc(Br)cc1` [BIRT377] the “inhibition of NFAT activity” value (NFAT) was “very weak NFAT inhibitory activity”.

`O=C1C=C(CCc2ccccc2)CO1` gave an IC50 (IL-2 [1]) of over 50 µM.

With `O=C1C[C@H](O)C[C@H](CCc2ccccc2)O1` the IC50 (IL-2 [1]) was 300 µM.

With `CC(C)n1c(/C=C/C(O)CC(O)CC(=O)O)c(-c2ccc(F)cc2)c2ccccc21` (stereo not shown) [fluvastatin] the “inhibition of NFAT activity” value (NFAT) was “inactive”.
